Laboratory results from patent US6548638B2, “Peptoid and nonpeptoid containing α-keto oxadiazoles as serine protease inhibitors” (Cortech, Inc., priority 1998, dated 2003).

Tests used:
[1] = biological target: T1, HNE (elastase derived from human sputum, HSE) (Homo sapiens, UniProt P08246); test: In vitro inhibition of elastase (rate assay, N-methoxysuccinyl-Ala-Ala-Pro-Val-p-nitroaniline substrate); format: biochemical; details: inhibition activity against HNE; IC50 by log-logit method converted to K1 by Dixson plot; pH 8.0, 37° C.
T1 construct: The elastase used in the protocol was derived from human sputum (HSE); purchased Elastin Product Co., Inc, Missouri, USA SE-563; host or cells: human sputum (natural source)
T1 sequence (P08246 30-267): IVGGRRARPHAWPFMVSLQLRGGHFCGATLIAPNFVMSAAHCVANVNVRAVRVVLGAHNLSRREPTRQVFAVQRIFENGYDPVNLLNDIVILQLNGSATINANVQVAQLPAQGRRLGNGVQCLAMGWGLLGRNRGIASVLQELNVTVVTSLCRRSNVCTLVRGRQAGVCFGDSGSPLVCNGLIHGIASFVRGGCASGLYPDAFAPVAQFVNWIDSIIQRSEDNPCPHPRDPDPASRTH

[2] = tested on: elastase activity in whole blood; test: Ex vivo inhibition of elastase (whole blood stimulated with opsonized zymosan, after oral administration); format: in vivo; details: blood sampled 60 minutes after administration, 24 hour fasted animal; for Percent Inhibition at Indicated Dosage, 3 mg/kg: 3 mg/kg oral; for Percent Inhibition at Indicated Dosage, 10 mg/kg: 10 mg/kg oral; for Percent Inhibition at Indicated Dosage, 30 mg/kg: 30 mg/kg oral
Method: Sixty (60) minutes after the oral administration of an inhibitor with an appropriate vehicle, a blood sample (0.9 ml) is collected through the abdominal aorta by a syringe containing 0.1 ml of a 3.8% sodium citrate solution.
The blood sample is processed as follows: 60 μl of (final 0.1-1 mg/ml) a suspended solution of opsonized zymosan in Hank's buffer is added to the preincubated whole blood (540 μl) for 5 minutes at 37° C., and the resulting mixture is incubated for 30 minutes at the same temperature. The reaction is terminated by immersing the test tube into ice water. The reaction mixture is then centrifuged at 3,000 rpm for 10 minutes at 4° C. Twenty (20) μl of each of the resulting supernatant (the Sample) is measured for elastase activity.
The mixture consisting of the following components is incubated for 24 hours at 37° C., and then optical density is measured at 405 nm:
A test sample mixed with 1-methyl-2-pyrrolidone instead of the substrate is regarded as Substrate (−). A test sample mixed with saline instead of the Sample is regarded as Blank. The remaining elastase activity in the Sample is calculated according to the following: […]
optical density of Substrate (+)−(optical density of Substrate (−)+optical density of Blank)
as a total production of p-nitroaniline over 24 hours based on a standard curve for the amount of p-nitroaniline.
An average activity is calculated based on the test sample of 5-6 animals. An agent at 3, 10 or 30 mg/kg is orally given by a forced administration to a 24 hour fasted animal at 60 minutes before the blood sampling. Optical density is measured by SPECTRA MAX 250 (Molecular Devices).

Compound	Ki [1] [nM]	Percent Inhibition at Indicated Dosage, 3 mg/kg [2] [%]	Percent Inhibition at Indicated Dosage, 10 mg/kg [2] [%]	Percent Inhibition at Indicated Dosage, 30 mg/kg [2] [%]
CC(C)C(NC(=O)Cn1c(-c2ccccc2)ncc(N)c1=O)C(=O)c1nnc(C(C)(C)c2ccc3c(c2)OCO3)o1 (racemic) [Example 8, 2-[5-Amino-6-oxo-2-phenyl-1,6-dihydro-1-pyrimidinyl]-N-[1-(2-[5-(α,α-dimethyl-3,4methylenedioxybenzyl)-1,3,4-oxadiazolyl]carbonyl)-2-(R,S)-methylpropyl]acetamide]	1.06	–	–	–
CC(C)C(NC(=O)Cn1c(-c2ccc(F)cc2)nccc1=O)C(=O)c1nnc(C(C)(C)c2ccc3c(c2)OCO3)o1 (racemic) [Example 10, 2-[6-Oxo-2-(4-fluorophenyl)-1,6-dihydro-1-pyrimidinyl]-N-[1-(2-[5-(α,α-dimethyl-3,4-methylenedioxybenzyl)-1,3,4-oxadiazolyl]carbonyl)-2-(R,S)-methylpropyl]acetamide]	1.53	–	–	–
CC(C)C(NC(=O)Cn1c(-c2ccc(F)cc2)nccc1=O)C(=O)c1nnc(C(C)(C)c2ccccc2)o1 (racemic) [Example 11, 2-[6-Oxo-2-(4-fluorophenyl)-1,6-dihydro-1-pyrimidinyl]-N-[1-(2-[5-(α,α-dimethylbenzyl)-1,3,4-oxadiazolyl]carbonyl)-2-(R,S)-methylpropyl]acetamide]	5.34	–	–	–
CC(C)C(NC(=O)Cn1c(-c2ccccc2)nccc1=O)C(=O)c1nnc(C(C)(C)c2ccccc2)o1 (racemic) [Example 12, 2-[6-Oxo-2-phenyl-1,6-dihydro-1-pyrimidinyl]-N-[1-(2-[5-(α,α-dimethylbenzyl)-1,3,4-oxadiazolyl]carbonyl)-2-(R,S)-methylpropyl]acetamide]	1.83	–	–	–

Now from value to compound, other results behind:

Ki [1] [nM]	Compound	Percent Inhibition at Indicated Dosage, 3 mg/kg [2] [%]	Percent Inhibition at Indicated Dosage, 10 mg/kg [2] [%]	Percent Inhibition at Indicated Dosage, 30 mg/kg [2] [%]
0.34	CC(C)C(NC(=O)Cn1c(-c2ccccc2)nccc1=O)C(=O)c1nnc(C(C)(C)c2ccc3c(c2)OCO3)o1 (racemic) [Example 9, 2-[6-Oxo-2-phenyl-1,6-dihydro-1-pyrimidinyl]-N-[1-(2-[5-(α,α-dimethyl-3,4-methylenedioxybenzyl)-1,3,4-oxadiazolyl]carbonyl)-2-(R,S)-methylpropyl]acetamide]	–	–	–
3	COC(=O)NC(C(=O)N1CCCC1C(=O)NC(C(=O)c1nnc(C(C)(C)C)o1)C(C)C)C(C)C [Example 1, Methyloxycarbonyl-L-valyl-N-[1-(2-[5-(tert-butyl)oxadiazolyl]carbonyl)-2-(S)-methylpropyl]-L-prolinamide]	–	–	–
1.32	COC(=O)NC(C(=O)N1CCCC1C(=O)NC(C(=O)c1nnc(C(C)(C)c2ccccc2)o1)C(C)C)C(C)C [Example 2, Methyloxycarbonyl-L-valyl-N-[1-(2-[5-(α,α-dimethylbenzyl)oxadiazolyl]carbonyl)-2-(S)-methylpropyl]-L-prolinamide]	7	9	62
0.24	COC(=O)NC(C(=O)N1CCCC1C(=O)NC(C(=O)c1nnc(C(C)(C)c2ccc3c(c2)OCO3)o1)C(C)C)C(C)C [Example 3, Methyloxycarbonyl-L-valyl-N-[1-(2-[5-(α,α-dimethyl-3,4-methylenedioxybenzyl)-1,3,4-oxadiazolyl]carbonyl)-2-(S)-methylpropyl]-L-prolinamide]	44	69	99
